Test results reported in patent publication US9732089B2, “Substituted pyrazolo[1,5-a]pyrimidines and their use in the treatment of medical disorders” (Lysosomal Therapeutics Inc., priority 2014, dated 2017).
Converted amounts (≈) assume the structure as drawn.

assay: Compound solubility in water; assay type: physicochemical

Row | solubility [µg/mL] | SMILES
1 | 34 (≈ 87.5 µM) | Cc1cc(C)n2ncc(C(=O)Nc3ccc4c(c3)C(C3=NCCN3)CCC4)c2n1 (stereo not drawn) [III-73]
2 | < 1.5 | Cc1cc(C)n2ncc(C(=O)Nc3ccc(-c4ccccc4)cc3)c2n1 [III-3]
3 | 0.06 (≈ 0.147 µM) | Cc1cc(C)n2ncc(C(=O)Nc3ccc(Cl)c(COc4cccnc4)c3)c2n1 [III-51]
4 | 1.2 (≈ 3.75 µM) | Cc1cc(C)n2ncc(C(=O)Nc3ccc4nc(C)[nH]c4c3)c2n1 [III-45]
5 | 5.4 (≈ 16.9 µM) | COCC#Cc1ccc(NCc2cnn3c(C)cc(C)nc23)cc1 [III-29]
6 | 33.4 (≈ 104 µM) | Cc1cc(C)n2ncc(C(=O)Nc3ccc4c(c3)CCNC4)c2n1 [III-46]
7 | 5.1 (≈ 14.7 µM) | Cc1cc(C)n2ncc(C(=O)Nc3ccc(C#CCN(C)C)cc3)c2n1 [IV-2]
8 | 0.5 (≈ 1.63 µM) | Cc1cc(C)n2ncc(C(=O)Nc3ccc4[nH]ncc4c3)c2n1 [III-41]
9 | < 1.5 | C#Cc1ccc(NC(=O)c2cnn3c(NC)cc(C)nc23)cc1 [III-78]
10 | 11.9 (≈ 36.2 µM) | Cc1cc(C)n2ncc(C(=O)N[C@@H](C)c3cccc(Cl)c3)c2n1 [III-63]
11 | < 1.5 | Cc1cc(C)n2ncc(C(=O)Nc3ccc(-c4ncco4)cc3)c2n1 [III-11]
12 | < 1.5 | Cc1cc(C)n2ncc(C(=O)Nc3ccc(-c4cccs4)nc3)c2n1 [III-20]
13 | 26.1 (≈ 81.7 µM) | Cc1cc(C)n2ncc(CNc3ccc(-c4cocn4)cc3)c2n1 [III-37]
14 | 0.05 (≈ 0.144 µM) | Cc1cc(C)n2ncc(C(=O)Nc3ccc(C)c(-c4ncco4)c3)c2n1 [III-52]
15 | 10 (≈ 32.2 µM) | Cc1cc(C)n2ncc(C(=O)Nc3ccc(C(C)O)cc3)c2n1 (stereo not drawn) [III-35]
16 | < 1.5 | Cc1cc(C)n2ncc(C(=O)Nc3ccc(-c4cnoc4)cc3)c2n1 [III-17]
17 | 0.4 (≈ 1.31 µM) | Cc1cc(C)n2ncc(C(=O)Nc3ccc4cn[nH]c4c3)c2n1 [III-42]
18 | < 1.5 | Cc1cc(C)n2ncc(C(=O)Nc3ccc(-c4cnsc4)cc3)c2n1 [III-16]
19 | < 1.5 | COCC#Cc1ccc(NC(=O)c2cnn3c(C)cc(C)nc23)cc1 [III-4]
20 | < 1.5 | Cc1cc(C)n2ncc(C(=O)Nc3ccc(N=[N+]=[N-])cc3)c2n1 [III-38]
21 | > 64 | Cc1cc(C)n2ncc(CNc3ccc(-c4cocn4)nc3)c2n1 [III-24]

Row | solubility [µg/mL] | SMILES
22 | 7.1 (≈ 19.8 µM) | CCCCCO[C@H]1CC[C@H](NC(=O)c2cnn3c(C)cc(C)nc23)CC1 [III-59]
23 | 0.7 (≈ 2.13 µM) | Cc1cc(C)n2ncc(C(=O)N[C@H](C)c3ccc(Cl)cc3)c2n1 [III-64]
24 | 15.1 (≈ 43.8 µM) | CO[C@H]1CC[C@@H](C(C)(C)NC(=O)c2cnn3c(C)cc(C)nc23)CC1 [III-72]
25 | < 1.5 | Cc1cc(C)n2ncc(C(=O)Nc3ccc(-c4nccs4)cc3)c2n1 [III-7]
26 | 0.3 (≈ 0.78 µM) | Cc1cc(C)n2ncc(C(=O)Nc3ccc4oc(-c5ccncc5)nc4c3)c2n1 [III-48]
27 | 1.4 (≈ 4.32 µM) | COc1ccccc1[C@H](C)NC(=O)c1cnn2c(C)cc(C)nc12 [III-61]
28 | < 0.05 | Cc1cc(C)n2ncc(C(=O)Nc3ccc(Cl)c(-c4cnco4)c3)c2n1 [III-53]
29 | < 1.5 | Cc1cc(C)n2ncc(C(=O)Nc3ccc(-c4ccncc4)cc3)c2n1 [III-56]
30 | < 1.5 | C#Cc1ccc(NC(=O)c2cnn3c(C)cc(C)nc23)nc1 [III-1]
31 | 0.6 (≈ 1.93 µM) | Cc1cc(C)n2ncc(C(=O)Nc3ccc4c(c3)OCO4)c2n1 [IV-4]
32 | 7.2 (≈ 23.1 µM) | Cc1cc(C)n2ncc(C(=O)N[C@@H](C)c3ccccc3F)c2n1 [III-60]
33 | < 1.5 | Cc1cc(C)n2ncc(C(=O)Nc3ccc(-c4ccon4)cc3)c2n1 [III-9]
34 | < 1.5 | C#Cc1ccc(NC(=O)c2cnn3c(C)cc(C)nc23)c(OC)c1 [III-8]
35 | < 1.5 | Cc1cc(C)n2ncc(C(=O)Nc3nc4ccccc4[nH]3)c2n1 [III-28]
36 | 0.4 (≈ 1.07 µM) | Cc1cc(C)n2ncc(C(=O)Nc3ccc4[nH]c(-c5ccco5)nc4c3)c2n1 [III-49]
37 | 0.1 (≈ 0.237 µM) | Cc1cc(C)n2ncc(C(=O)Nc3ccc(Cl)c(C(C)Oc4cccnc4)c3)c2n1 (stereo not drawn) [III-75]
38 | 0.9 (≈ 2.93 µM) | Cc1cc(C)n2ncc(C(=O)Nc3ccc4oncc4c3)c2n1 [III-47]
39 | 27.6 (≈ 88.4 µM) | Cc1cc(C)n2ncc(C(=O)N[C@H](C)c3ccc(F)cc3)c2n1 [III-65]
40 | 0.2 (≈ 0.726 µM) | C#Cc1ccc(NCc2cnn3c(C)cc(C)cc23)cc1 [III-74]
41 | 59.6 (≈ 176 µM) | Cc1cc(C)n2ncc(C(=O)Nc3ccc(CCC(=O)O)cc3)c2n1 [III-36]
42 | 33 (≈ 99.3 µM) | Cc1cc(C)n2ncc(C(=O)Nc3ccc(-c4cc[nH]n4)cc3)c2n1 [III-31]

Row | solubility [µg/mL] | SMILES
43 | < 1.5 | Cc1cc(C)n2ncc(C(=O)Nc3ccc(-c4ncc[nH]4)cc3)c2n1 [III-30]
44 | < 1.5 | C#Cc1ccc(NC(=O)c2cnn3c(C)cc(C)nc23)cc1 [IV-1]
45 | 2.6 (≈ 8.11 µM) | Cc1cc(C)n2ncc(C(=O)NC3CCCc4ccccc43)c2n1 (stereo not drawn) [III-58]
46 | < 1.5 | Cc1cc(C)n2ncc(C(=O)Nc3ccc(-c4cscn4)cc3)c2n1 [III-27]
47 | 8 (≈ 27 µM) | C#C[C@H]1CC[C@@H](NC(=O)c2cnn3c(C)cc(C)nc23)CC1 [III-15]
48 | < 1.5 | C#CCOc1ccc(NC(=O)c2cnn3c(C)cc(C)nc23)cc1 [III-33]
49 | 5.1 (≈ 14 µM) | Cc1cc(Cl)nc2c(C(=O)NC(C)(C)c3ccc(Cl)cc3)cnn12 [III-69]
50 | < 1.5 | Cc1cc(C)n2ncc(C(=O)Nc3ccc(-c4cocn4)cc3)c2n1 [III-10]
51 | 2.2 (≈ 6.42 µM) | Cc1cc(C)n2ncc(C(=O)NC(C)(C)c3ccc(Cl)cc3)c2n1 [III-67]
52 | 2.6 (≈ 7.12 µM) | Cc1cc(C)n2ncc(C(=O)Nc3cc(C4(C(F)(F)F)CC4)on3)c2n1 [III-18]
53 | < 1.5 | Cc1cc(C)n2ncc(C(=O)Nc3cc(-c4ccccc4)on3)c2n1 [III-12]
54 | 3 (≈ 8.97 µM) | Cc1cc(C)n2ncc(C(=O)Nc3ccc(-c4cocn4)nc3)c2n1 [III-19]
55 | 2.5 (≈ 7.71 µM) | COc1ccccc1[C@@H](C)NC(=O)c1cnn2c(C)cc(C)nc12 [III-62]
56 | < 1.5 | Cc1cc(C)n2ncc(C(=O)Nc3ccc(N4CCCCC4)cc3)c2n1 [IV-3]
57 | < 1.5 | CCCCCOc1ccc(NC(=O)c2cnn3c(C)cc(C)nc23)cc1 [III-32]
58 | < 1.5 | Cc1cc(C)n2ncc(C(=O)Nc3ccc(Oc4ccccc4)cc3)c2n1 [III-5]
59 | 0.3 (≈ 0.939 µM) | Cc1cc(C)n2ncc(C(=O)Nc3ccc4[nH]c(C)cc4c3)c2n1 [III-40]
60 | < 1.5 | Cc1cc(C)n2ncc(C(=O)Nc3ccc(-c4ccco4)nc3)c2n1 [III-22]
61 | < 1.5 | Cc1cc(C)n2ncc(C(=O)Nc3ccc(CCCC(=O)O)cc3)c2n1 [III-34]
62 | 26 (≈ 87.7 µM) | C#CC1CCC(NC(=O)c2cnn3c(C)cc(C)nc23)CC1 (stereo not drawn) [III-13]
63 | < 1.5 | C#Cc1ccc(NC(=O)c2cnn3c(C)cc(C)nc23)cn1 [III-2]

Row | solubility [µg/mL] | SMILES
64 | 21.4 (≈ 62.1 µM) | CO[C@H]1CC[C@H](C(C)(C)NC(=O)c2cnn3c(C)cc(C)nc23)CC1 [III-71]
65 | 39 (≈ 128 µM) | Cc1ccn2ncc(CNc3ccc(-c4ncco4)cc3)c2n1 [III-26]
66 | 2.1 (≈ 6.06 µM) | Cc1cc(C)n2ncc(C(=O)Nc3ccc(-c4cnn(C)c4)cc3)c2n1 [III-54]
67 | < 1.5 | Cc1cc(C)n2ncc(C(=O)Nc3ccc(-c4cccs4)cc3)c2n1 [III-39]
68 | 2.1 (≈ 5.78 µM) | Cc1cc(Cl)n2ncc(C(=O)NC(C)(C)c3ccc(Cl)cc3)c2n1 [III-68]
69 | 2.3 (≈ 6.82 µM) | Cc1cc(C)n2ncc(C(=O)Nc3ccc4nc(C)sc4c3)c2n1 [III-50]
70 | 54 (≈ 177 µM) | Cc1ccn2ncc(CNc3ccc(-c4cocn4)cc3)c2n1 [III-25]
71 | 4.2 (≈ 13.8 µM) | C#Cc1ccc(NC(=O)c2cnn3c(C)cc(NC)nc23)cc1 [III-77]
72 | 0.3 (≈ 0.934 µM) | Cc1cc(C)n2ncc(C(=O)Nc3ccc4nc(C)oc4c3)c2n1 [III-44]
73 | 17.6 (≈ 59.4 µM) | C#C[C@H]1CC[C@H](NC(=O)c2cnn3c(C)cc(C)nc23)CC1 [III-14]
74 | < 1.5 | Cc1cc(C)n2ncc(C(=O)Nc3ccc(-n4ccnc4)cc3)c2n1 [III-6]
75 | 0.5 (≈ 1.63 µM) | Cc1cc(C)n2ncc(C(=O)Nc3ccc4c(c3)CCC4)c2n1 [IV-5]
76 | 20.6 (≈ 61.2 µM) | Cc1cc(C)n2ncc(C(=O)NC(C)C3CCC(F)(F)CC3)c2n1 (stereo not drawn) [III-66]
77 | < 1.5 | Cc1cc(C)n2ncc(C(=O)Nc3ccc(-c4ccncc4)nc3)c2n1 [III-21]
78 | < 1.5 | Cc1cc(C)n2ncc(C(=O)Nc3ccc(-c4cnn(C)c4)nc3)c2n1 [III-23]
79 | 2 (≈ 5.81 µM) | Cc1cc(C)n2ncc(C(=O)NC(C)(C)c3ccc(F)cc3F)c2n1 [III-70]
80 | < 1.5 | Cc1cc(C)n2ncc(C(=O)Nc3ccc(-c4ccco4)cc3)c2n1 [III-55]
81 | 0.8 (≈ 2.61 µM) | Cc1cc(C)n2ncc(C(=O)NC3CCc4ccccc43)c2n1 (stereo not drawn) [III-79]
